Measured values taken from US8772498B2, “Alkylamine-substituted dicyanopyridine and amino acid ester prodrugs thereof” (Bayer Intellectual Property GmbH, priority 2009, dated 2014).

How the values were obtained:
[1] = Determination of the solubility in 5% strength aqueous dextrose solution; format: physicochemical; details: result in words
Description: B-8. Determination of Solubility, Stability and Liberation Behavior a) Determination of the Solubility:
The test substance is suspended in 5% strength aqueous dextrose solution. This suspension is shaken at room temperature for 24 h. After ultracentrifugation at 224 000 g for 30 min, the supernatant is diluted with DMSO and analyzed by HPLC. A two-point calibration plot of the test compound in DMSO is used for quantification.
Agilent 1100 with DAD (G1315A), quat. pump (G1311A), autosampler CTC HTS PAL, degasser (G1322A) and column thermostat (G1316A); column: Phenomenex Gemini C18, 5 μm, 50 mm×2 mm; temperature: 40° C.; eluent A: water/phosphoric acid pH 2; eluent B: acetonitrile; flow rate: 0.7 ml/min; gradient: 0-0.5 min 85% A, 15% B; ramp: 0.5-3 min 10% A, 90% B; 3-3.5 min 10% A, 90% B; ramp: 3.5-4 min 85% A, 15% B; 4-5 min 85% A, 15% B.
Agilent 1100 with DAD (G1315A), quat. pump (G1311A), autosampler CTC HTS PAL, degasser (G1322A) and column thermostat (G1316A); column: VDSoptilab Kromasil 100 C18, 3.5 μm, 60 mm×2.1 mm; temperature: 30° C.; eluent A: water+5 ml perchloric acid/I; eluent B: acetonitrile; flow rate: 0.75 ml/min; gradient: 0-0.5 min 98% A, 2% B; ramp: 0.5-4.5 min 10% A, 90% B; 4.5-6 min 10% A, 90% B; ramp: 6.5-6.7 min 98% A, 2% B; 6.7-7.5 min 98% A, 2% B.

[2] = system: spontaneously hypertensive rats; assay: Measurement of blood pressure and heart rate on awake rats (telemetry); format: in vivo; details: maximum reduction in heart rate, oral administration of 3 mg/kg, awake SH rats
Description: B-5. Measurement of Blood Pressure and Heart Rate
Awake spontaneously hypertensive rats (SH-Ratten) carrying an internal transmitter capable of measuring permanently both blood pressure and heart rate (telemetric monitoring of hemodynamic parameters) and sitting in a cage fitted with motion sensors are orally administered test substances in various dosages. Blood pressure and heart rate and changes thereof, and also the movements and the activity of the animals are then recorded and evaluated for 24 hours.

mice (strain: CD1) = assay: Locomotor action in the treadmill experiment; format: in vivo; details: oral
Description: B-7. Test of Adenosine A1 Receptor Agonists on Locomotor Action in the Treadmill Experiment To determine the action of adenosine A1 receptor agonists on locomotor function, the running behavior of mice (strain: CD1) in treadmills (M. Weber et al., Psychopharmacology 2008, in print) is examined. To get the mice accustomed to voluntary use of the treadmill, 2-3 weeks prior to the start of the experiment the animals are isolated in cages with a treadmill and trained. 2 weeks prior to the start of the experiment, the movements of the mice in the treadmill are recorded by a photo cell using a computer, and various running parameters such as, for example, the distance run in a day, the individual distances covered, and also their distribution over the day are determined. According to their natural running behavior, the animals are randomized into groups (8-12 animals) (control group and 1—a plurality of substance groups). After the initial 2-week phase, the animals are treated orally with the substances to be tested. Here, single doses or else increasing dosages (for example 0.3-1-3-10-30 mg/kg) are administered. The substances are tested in two independent experiments. Between 2 experiments, there are at least 3 days where the animals are not administered any substances. The running behavior of the animals is observed and recorded for 24 hours after administration. Evaluation of the running intervals and the total distance covered takes place over a period of several hours during the main activity period of the mice. Effects are stated in percent of the control.

adenosine A2b receptor = biological target: T1, adenosine A2b receptor (Homo sapiens, UniProt P29275); assay: Indirect determination of adenosine agonism by gene expression (luciferase), A2b cells; format: cell-based; details: CHO cells, luciferase readout
T1 construct: expressed in transfected cells; host or cells: CHO (Chinese Hamster Ovary)
T1 sequence (P29275 1-332): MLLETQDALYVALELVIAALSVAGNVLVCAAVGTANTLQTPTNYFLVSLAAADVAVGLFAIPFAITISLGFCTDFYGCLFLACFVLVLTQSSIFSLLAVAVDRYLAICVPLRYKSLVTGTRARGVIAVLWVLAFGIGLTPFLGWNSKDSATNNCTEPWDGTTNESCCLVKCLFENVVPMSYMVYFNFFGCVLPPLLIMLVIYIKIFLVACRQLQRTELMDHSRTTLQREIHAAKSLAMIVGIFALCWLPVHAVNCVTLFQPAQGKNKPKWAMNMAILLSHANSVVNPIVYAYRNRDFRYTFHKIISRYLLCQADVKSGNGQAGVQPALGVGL
Description: (§1) B-1. Indirect Determination of the Adenosine Agonism by Way of Gene Expression
(§2) Cells of the CHO (Chinese Hamster Ovary) permanent cell line are transfected stably with the cDNA for the adenosine receptor subtypes A1, A2a and A2b. The adenosine A1 receptors are coupled to the adenylate cyclase by way of G, proteins, while the adenosine A2a and A2b receptors are coupled by way of Gs proteins. In correspondence with this, the formation of cAMP in the cell is inhibited or stimulated, respectively. After that, expression of the luciferase is modulated by way of a cAMP-dependent promoter. The luciferase test is optimized, with the aim of high sensitivity and reproducibility, low variance and good suitability for implementation on a robot system, by varying several test parameters, such as cell density, duration of the growth phase and the test incubation, forskolin concentration and medium composition. The following test protocol is used for pharmacologically characterizing cells and for the robot-assisted substance screening:
(§3) The stock cultures are grown, at 37° C. and under 5% CO2, in DMEM/F12 medium containing 10% FCS (fetal calf serum) and in each case split 1:10 after 2-3 days. The test cultures are seeded in 384-well plates with 2000 cells per well and grown at 37° C. for approx. 48 hours. The medium is then replaced with a physiological sodium chloride solution (130 mM sodium chloride, 5 mM potassium chloride, 2 mM calcium chloride, 20 mM HEPES, 1 mM magnesium chloride hexahydrate, 5 mM sodium bicarbonate, pH 7.4). The substances to be tested, which are dissolved in DMSO, are pipetted into the test cultures (maximum final concentration of DMSO in the test mixture: 0.5%) in a dilution series of from 5×10^−11 M to 3×10^−6 M (final concentration). 10 minutes later, forskolin is added to the A1 cells and all the cultures are subsequently incubated at 37° C. for four hours. After that, 35 μl of a solution which is composed of 50% lysis reagent (30 mM disodium hydrogenphosphate, 10% glycerol, 3% TritonX100, 25 mM TrisHCl, 2 mM dithiotreitol (DTT), pH 7.8) and 50% luciferase substrate solution (2.5 mM ATP, 0.5 mM luciferin, 0.1 mM coenzyme A, 10 mM tricine, 1.35 mM magnesium sulfate, 15 mM DTT, pH 7.8) are added to the test cultures, which are shaken for approx. 1 minute and the luciferase activity is measured using a camera system. The ECK values are determined, i.e., the concentrations at which 50% of the luciferase answer is inhibited in the case of the A1 cell, and, respectively, 50% of the maximum stimulation with the corresponding substance is achieved in the case of the A2b and A2a cells.
(§4) Table 1 below lists the ECK values of representative working examples for the receptor stimulation on adenosine A1, A2a and A2b receptor subtypes: […]

adenosine A1 receptor = biological target: T2, adenosine A1 receptor (Homo sapiens, UniProt P30542); assay: Indirect determination of adenosine agonism by gene expression (luciferase), A1 cells; format: cell-based; details: CHO cells, luciferase readout, 1 μM forskolin
T2 construct: expressed in transfected cells; host or cells: CHO (Chinese Hamster Ovary)
T2 sequence (P30542 1-326): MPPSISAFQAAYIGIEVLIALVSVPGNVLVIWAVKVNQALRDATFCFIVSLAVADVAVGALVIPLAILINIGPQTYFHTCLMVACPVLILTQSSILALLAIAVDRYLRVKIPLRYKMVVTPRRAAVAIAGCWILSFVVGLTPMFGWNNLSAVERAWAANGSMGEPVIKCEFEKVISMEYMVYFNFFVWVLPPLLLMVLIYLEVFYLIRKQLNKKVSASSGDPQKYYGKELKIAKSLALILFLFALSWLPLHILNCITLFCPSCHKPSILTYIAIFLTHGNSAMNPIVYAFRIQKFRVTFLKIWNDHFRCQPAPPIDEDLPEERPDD
Description: as §1, §2, §3, §4

adenosine A2a receptor = biological target: T3, adenosine A2a receptor (Homo sapiens, UniProt P29274); assay: Indirect determination of adenosine agonism by gene expression (luciferase), A2a cells; format: cell-based; details: CHO cells, luciferase readout
T3 construct: expressed in transfected cells; host or cells: CHO (Chinese Hamster Ovary)
Description: as §1, §2, §3, §4

T3 sequence (P29274 whole entry): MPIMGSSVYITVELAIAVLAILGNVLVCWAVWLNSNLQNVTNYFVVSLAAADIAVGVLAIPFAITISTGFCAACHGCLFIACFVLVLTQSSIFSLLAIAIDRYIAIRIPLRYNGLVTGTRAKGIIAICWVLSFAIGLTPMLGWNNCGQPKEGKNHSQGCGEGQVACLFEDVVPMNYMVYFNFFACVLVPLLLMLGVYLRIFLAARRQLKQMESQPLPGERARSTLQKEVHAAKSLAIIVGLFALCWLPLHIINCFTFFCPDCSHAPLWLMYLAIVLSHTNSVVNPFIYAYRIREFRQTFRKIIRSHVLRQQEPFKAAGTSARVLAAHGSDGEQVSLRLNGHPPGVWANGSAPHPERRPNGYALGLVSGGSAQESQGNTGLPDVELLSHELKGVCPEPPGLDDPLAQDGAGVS

In the case of CNc1nc(SCc2csc(-c3ccc(Cl)cc3)n2)c(C#N)c(-c2ccc(OCCO)cc2)c1C#N [Example 2, 2-({(2-(4-Chlorophenyl)-1,3-thiazol-4-yl)methyl}sulfanyl)-4-(4-(2-hydroxyethoxy)phenyl)-6-(methylamino)pyridine-3,5-dicarbonitrile], the “Solubility of the active substance” value [1] is reported as “below the detection limit” and the Heart rate reduction [2] is reported as −45%.

With N#Cc1c(SCc2csc(-c3ccc(Cl)cc3)n2)nc(N2CCCCC2)c(C#N)c1-c1ccc(OCCO)cc1 [Example 13] the “Reduction of the total distance run by 1 mg/kg” value (shortened to “Reduction … by 1 mg/kg”) (mice (strain: CD1)) was 0%.

With N#Cc1c(NCCF)nc(SCc2csc(-c3ccc(Cl)cc3)n2)c(C#N)c1-c1ccc(OCCO)cc1 [Example 33, 2-({(2-(4-Chlorophenyl)-1,3-thiazol-4-yl)methyl}sulfanyl)-6-((2-fluoroethyl)amino)-4-(4-(2-hydroxyethoxy)phenyl)pyridine-3,5-dicarbonitrile] the “Reduction … by 1 mg/kg” value (mice (strain: CD1)) was 24%, the EC50 (adenosine A2b receptor) was 900 nM and the EC50 (adenosine A1 receptor) was 0.05 nM. The EC50 (adenosine A2a receptor) was 27 nM.

Compound CCNc1nc(SCc2csc(-c3ccc(Cl)cc3)n2)c(C#N)c(-c2ccc(OCCO)cc2)c1C#N [Example 3, 2-({(2-(4-Chlorophenyl)-1,3-thiazol-4-yl)methyl}sulfanyl)-6-(ethylamino)-4-(4-(2-hydroxy-ethoxy)phenyl)pyridine-3,5-dicarbonitrile] has an EC50 (adenosine A2b receptor) of 138 nM, an EC50 (adenosine A1 receptor) of 0.3 nM and an EC50 (adenosine A2a receptor) of 282 nM.

Compound N#Cc1c(SCc2csc(-c3ccc(Cl)cc3)n2)nc(N2CCOCC2)c(C#N)c1-c1ccc(OCCO)cc1 [Example 17, 2-({(2-(4-chlorophenyl)-1,3-thiazol-4-yl)methyl}sulfanyl)-4-(4-(2-hydroxyethoxy)phenyl)-6-(morpholin-4-yl)pyridine-3,5-dicarbonitrile] has an EC50 (adenosine A2b receptor) of 55 nM and an EC50 (adenosine A1 receptor) of 0.3 nM.

CCN(C)c1nc(SCc2csc(-c3ccc(Cl)cc3)n2)c(C#N)c(-c2ccc(OCCO)cc2)c1C#N [Example 5, 2-({(2-(4-Chlorophenyl)-1,3-thiazol-4-yl)methyl}sulfanyl)-6-(ethyl(methyl)amino)-4-(4-(2-hydroxyethoxy)phenyl)pyridine-3,5-dicarbonitrile] showed an EC50 (adenosine A2b receptor) of 150 nM, an EC50 (adenosine A1 receptor) of 0.5 nM and an EC50 (adenosine A2a receptor) of 315 nM.

For N#Cc1c(SCc2csc(-c3ccc(Cl)cc3)n2)nc(N2CCCC2)c(C#N)c1-c1ccc(OCCO)cc1 [Example 1], the “Reduction … by 1 mg/kg” value (mice (strain: CD1)) was 0%, the “Solubility of the active substance” value [1] was “below the detection limit” and the Heart rate reduction [2] was −20%. For the same compound, the EC50 (adenosine A2b receptor) was 80 nM, the EC50 (adenosine A1 receptor) was 0.1 nM and the EC50 (adenosine A2a receptor) was 673 nM.

For COCCN(C)c1nc(SCc2csc(-c3ccc(Cl)cc3)n2)c(C#N)c(-c2ccc(OCCO)cc2)c1C#N [Example 21, 2-({(2-(4-chlorophenyl)-1,3-thiazol-4-yl)methyl}sulfanyl)-4-(4-(2-hydroxyethoxy)phenyl)-6-((2-methoxyethyl)(methyl)amino)pyridine-3,5-dicarbonitrile], the “Reduction … by 1 mg/kg” value (mice (strain: CD1)) was 7.5%, the EC50 (adenosine A1 receptor) was 0.9 nM and the EC50 (adenosine A2a receptor) was 743 nM.

Work on N#Cc1c(NC2CC2)nc(SCc2csc(-c3ccc(Cl)cc3)n2)c(C#N)c1-c1ccc(OCCO)cc1 [Example 9] yielded an EC50 (adenosine A2b receptor) of 231 nM, an EC50 (adenosine A1 receptor) of 0.7 nM and an EC50 (adenosine A2a receptor) of 281 nM.

In the case of COC1CCN(c2nc(SCc3csc(-c4ccc(Cl)cc4)n3)c(C#N)c(-c3ccc(OCCO)cc3)c2C#N)CC1 [Example 24, 2-({(2-(4-chlorophenyl)-1,3-thiazol-4-yl)methyl}sulfanyl)-4-(4-(2-hydroxyethoxy)phenyl)-6-(4-methoxypiperidin-1-yl)pyridine-3,5-dicarbonitrile], the EC50 (adenosine A2b receptor) is reported as 675 nM, the EC50 (adenosine A1 receptor) is reported as 0.6 nM and the EC50 (adenosine A2a receptor) is reported as 287 nM.
